Measured values: patent US20220079139A1, “CYCLOSPORIN ANALOG AND USE THEREOF” (Farsight Medical Technology (Shanghai) Co., Ltd., priority 2019, published 2022)
pEC50: −log10 of the molar value.

Key:
Cyclophilin A = Cyclophilin A (Homo sapiens, UniProt P62937); test: Cyclophilin inhibition binding, competitive ELISA (Cyclophilin A); details: human recombinant cyclophilin, read-out: CypA EC50
Procedure: (§1) The cyclophilin inhibition binding activity of compounds disclosed herein was determined using a competitive ELISA adapted from the methods described by Quesniaux et al. (Eur. J Immunol., 1987, 17:1359-1365). Activated ester of succinyl spacers bound to D-Lys^8-cylosporine A (D-Lys^8-Cs) are coupled to bovine serum albumin (BSA) through D-lysyl residue in position 8. BSA is dissolved in 0.1 M borate buffer, pH 9.0 (4 mg in 1.4 ml). A hundredfold molar excess of D-Lys^8-Cs dissolved in dimethyl formamide (0.6 ml) is added dropwise to the BSA under vigorous stirring. The coupling reaction is performed for 2 to 3 hours at room temperature under mild stirring and the conjugate obtained is extensively dialyzed against phosphate-buffered saline (PBS, pH 7.4).
(§2) Microtiter Plates are coated with D-Lys^8-Cs-BSA conjugate (2 μg/ml in PBS for 24 hours at 4° C.). Titration Plates are washed with Tween®/PBS and with PBS alone. To block nonspecific binding, 2% BSA/PBS (pH 7.4) is added to the wells and allowed to incubate for 2 hours at 37° C. A five-fold dilution series of the compound to be tested is made in ethanol in a separate microtiter plate. The starting concentration is 0.1 mg/mL for assays with human recombinant cyclophilin. 198 μL of 0.1 μg/mL cyclophilin solution is added to the microtiter plate immediately followed by 2 μL of diluted cyclosporine A (used as a reference compound) or the compound of the invention. The reaction between coated BSA-Cs conjugate, free cyclosporine A and cyclophilin is allowed to equilibrate overnight at 4° C. Cyclophilin is detected with anti-cyclophilin rabbit serum diluted in PBS containing 1% BSA and incubates overnight at 4° C. Titration Plates are washed as described above. Bound rabbit antibodies are then detected by goat anti-rabbit IgG conjugated to alkaline phosphatase and diluted in 1% BSA-PBS and allowed to incubate for 2 hours at 37° C. Titration Plates are washed as described above. […] The results are expressed as an EC50, which is the concentration of the compound of the invention required to achieve 50% inhibition.

Cyclophilin D = Cyclophilin D (Homo sapiens, UniProt P30405); test: Cyclophilin inhibition binding, competitive ELISA (Cyclophilin D); details: human recombinant cyclophilin, read-out: CypD EC50
Chain of Cyclophilin D (P30405 30-207): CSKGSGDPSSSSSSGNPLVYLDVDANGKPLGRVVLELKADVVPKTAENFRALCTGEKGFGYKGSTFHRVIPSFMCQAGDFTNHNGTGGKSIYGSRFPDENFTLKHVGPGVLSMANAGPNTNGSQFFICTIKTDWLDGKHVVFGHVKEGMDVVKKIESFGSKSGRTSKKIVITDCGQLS
Procedure: as §1, §2

Chain of Cyclophilin A (P62937 whole entry): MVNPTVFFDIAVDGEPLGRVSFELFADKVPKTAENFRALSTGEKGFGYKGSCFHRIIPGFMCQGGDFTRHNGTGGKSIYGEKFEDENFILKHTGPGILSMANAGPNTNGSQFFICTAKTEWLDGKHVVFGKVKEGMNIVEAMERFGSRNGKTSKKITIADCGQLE

pEC50 (Cyclophilin A) | pEC50 (Cyclophilin D) | SMILES
7.85 |  | C/C=C/C[C@@H](C)[C@@H](O)[C@H]1C(=O)N[C@@H](CC)C(=O)N(C)[C@H](OCCCN)C(=O)N(C)[C@@H](CC(C)C)C(=O)N[C@@H](C(C)C)C(=O)N(C)[C@@H](CC(C)C)C(=O)N[C@@H](C)C(=O)N[C@H](C)C(=O)N(C)[C@@H](CC(C)C)C(=O)N(C)[C@@H](CC(C)C)C(=O)N(C)[C@@H](C(C)C)C(=O)N1C [Entry 3]
6.93 | 5.60 | C/C=C/C[C@@H](C)[C@@H](O)[C@H]1C(=O)N[C@@H](CC)C(=O)N(C)[C@H](OCCN2CCCCC2)C(=O)N(C)[C@@H](CC(C)C)C(=O)N[C@@H](C(C)C)C(=O)N(C)[C@@H](CC(C)C)C(=O)N[C@@H](C)C(=O)N[C@H](C)C(=O)N(C)[C@@H](CC(C)C)C(=O)N(C)[C@@H](CC(C)C)C(=O)N(C)[C@@H](C(C)C)C(=O)N1C [Entry 6]
7.18 |  | C/C=C/C[C@@H](C)[C@@H](O)[C@H]1C(=O)N[C@@H](CC)C(=O)N(C)[C@H](OCCN2CCC2)C(=O)N(C)[C@@H](CC(C)C)C(=O)N[C@@H](C(C)C)C(=O)N(C)[C@@H](CC(C)C)C(=O)N[C@@H](C)C(=O)N[C@H](C)C(=O)N(C)[C@@H](CC(C)C)C(=O)N(C)[C@@H](CC(C)C)C(=O)N(C)[C@@H](C(C)C)C(=O)N1C [Entry 5]
6.69 | 5.45 | C/C=C/C[C@@H](C)[C@@H](O)[C@H]1C(=O)N[C@@H](CC)C(=O)N(C)[C@H](OCCN(C)C(C)C)C(=O)N(C)[C@@H](CC(C)C)C(=O)N[C@@H](C(C)C)C(=O)N(C)[C@@H](CC(C)C)C(=O)N[C@@H](C)C(=O)N[C@H](C)C(=O)N(C)[C@@H](CC(C)C)C(=O)N(C)[C@@H](CC(C)C)C(=O)N(C)[C@@H](C(C)C)C(=O)N1C [Entry 2]
7.92 | 5.92 | C/C=C/C[C@@H](C)[C@@H](O)[C@H]1C(=O)N[C@@H](CC)C(=O)N(C)[C@H](OCCN2CCCC2)C(=O)N(C)[C@@H](CC(C)C)C(=O)N[C@@H](C(C)C)C(=O)N(C)[C@@H](CC(C)C)C(=O)N[C@@H](C)C(=O)N[C@H](C)C(=O)N(C)[C@@H](CC(C)C)C(=O)N(C)[C@@H](CC(C)C)C(=O)N(C)[C@@H](C(C)C)C(=O)N1C [Entry 7]
